From patent publication US20090270450A1, “CHEMICAL COMPOUNDS” (ASTRAZENECA AB, priority 2006, published 2009) come the findings set out here.

The target in the first test is T1, His-tagged kinase domain of CSF-1R (amino acids 568-912) (Homo sapiens, UniProt P07333).
T1 construct: The His-tagged kinase domain of CSF-1R (i.e., amino acids 568-912, GeneBank ID NM_005211); His; made in house; host or cells: baculovirus infected SF+Express insect cells
T1 sequence (P07333 568-912): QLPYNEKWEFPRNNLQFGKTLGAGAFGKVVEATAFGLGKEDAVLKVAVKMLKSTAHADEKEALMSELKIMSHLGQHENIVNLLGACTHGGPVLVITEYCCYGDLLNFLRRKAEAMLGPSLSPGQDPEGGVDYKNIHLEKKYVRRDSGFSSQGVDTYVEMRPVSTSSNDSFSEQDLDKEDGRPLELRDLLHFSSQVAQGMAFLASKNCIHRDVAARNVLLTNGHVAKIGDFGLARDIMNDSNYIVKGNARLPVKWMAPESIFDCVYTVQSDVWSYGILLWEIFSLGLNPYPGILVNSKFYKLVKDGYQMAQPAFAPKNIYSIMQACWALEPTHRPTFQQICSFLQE
The test is described as follows: Assay 2: CSF1R in-vitro AlphaScreen assay. In kind it is biochemical. To be noted: phosphorylation of biotinylated pEY substrate; 0.46 nM CSF-1R, 12 mM ATP mix. The protocol: Assay 2: CSF1R in-Vitro AlphaScreen Assay
Activity of purified CSF-1R was determined in-vitro using an Amplified Luminescent Proximity Homogeneous Assay (ALPHA) (Perkin Elmer, Mass.), which measures phosphorylation of CSF-1R substrate, biotinylated poly-glutamine-tyrosine peptide (pEY-HTRF CisBio 61GT0BLD), as described below. The His-tagged kinase domain of CSF-1R (i.e., amino acids 568-912, GeneBank ID NM_005211) was purified from baculovirus infected SF+Express insect cells (1.4×10^6 cells/ml), French pressed and chromatographed through subsequent QIAgen Ni-NTA, Superflow Mono Q HR 10/10, and Superdex 200 SEC columns. Typical yield was 322 ug/l of cell pellet at >95% purity. The phosphorylation of the CSF-1R substrate in the presence and absence of the compound of interest was determined. Briefly, 5 ul of Enzyme/Substrate/adenosine triphosphate (ATP) mix consisting of 0.46 nM of purified CSF-1R, 12 nM pEY substrate, and 12 mM ATP in 1.2× buffer was preincubated with 2 ul of compound for 20 minutes at 25° C. Reactions were initiated with 5 ul of Metal mix consisting of 24 mM MgCl2 in 1.2× buffer and incubated at 25° C. for 90 minutes and reactions were stopped by addition of 5 ul of Detection mix consisting of 20 mM HEPES, 102 mM ethylenediamine tetraacetic acid, 1.65 mg/ml BSA, 136 mM NaCl, 40 ug/ml Streptavidin donor beads (Perkin Elmer, Mass., Catalog #6760002), and 40 ug/ml phosphotyrosine-specific antibody coated acceptor beads (Perkin Elmer, Mass., Catalog #6760620). Plates were incubated at 25° C. for 18 hours in the dark. Phosphorylated substrate was detected by an EnVision plate reader (Perkin Elmer) 680 nm excitation, 520-620 nm emission. Data was graphed and IC50s calculated using Excel Fit (Microsoft). […] For example the following results were obtained in an assay substantially similar to one or other of the assays described hereinabove: […]
A general note: In Alpha technology, singlet oxygen from a donor bead excites a nearby acceptor bead.
As to `COc1cc2ncc(C(N)=O)c(Nc3ccc(C)cc3F)c2cc1C1CCN(C(C)C)CC1` [Example 52, 4-[(2-Fluoro-4-methylphenyl)amino]-6-(1-isopropylpiperidin-4-yl)-7-methoxyquinoline-3-carboxamide], the IC50 (commonly the concentration at which inhibition is half-maximal) was found to be 14 nM.
Consider `COc1cc2ncc(C(N)=O)c(Nc3ccc(F)cc3F)c2cc1C1CCN(C(C)C)CC1` [Example 53, 4-[(2,4-Difluorophenyl)amino]-6-(1-isopropylpiperidin-4-yl)-7-methoxyquinoline-3-carboxamide], for which the IC50 worked out at 32 nM.
In turn, `COc1cc2ncc(C(N)=O)c(Nc3cccc(Cl)c3F)c2cc1C1CCN(C(C)C)CC1` [Example 54, 4-[(3-Chloro-2-fluorophenyl)amino]-6-(1-isopropylpiperidin-4-yl)-7-methoxyquinoline-3-carboxamide] returned a concentration for half-maximal inhibition (IC50) of 8 nM.
`CCOc1cc2ncc(C(N)=O)c(Nc3ccc(C)cc3F)c2cc1C1CCN(C(C)=O)CC1` [Example 56, 6-(1-Acetylpiperidin-4-yl)-7-ethoxy-4-[(2-fluoro-4-methylphenyl)amino]quinoline-3-carboxamide] had an IC50 of 30 nM.
Same read-out and setting: next, `CCOc1cc2ncc(C(N)=O)c(Nc3ccc(C)cc3F)c2cc1C1CCN(C(=O)CCOC)CC1` [Example 57, 7-Ethoxy-4-[(2-fluoro-4-methylphenyl)amino]-6-[1-(3-methoxypropanoyl)piperidin-4-yl]quinoline-3-carboxamide]: 71 nM.

Another test concerns the target T1, His-tagged kinase domain of CSF-1R (amino acids 568-912). Put plainly: Assay 1: CSF-1R in vitro AlphaScreen assay. The class given is biochemical. The following applies: phosphorylation of biotinylated pEY substrate; 0.57 nM CSF-1R, 90 μM ATP. The protocol:
Assay 1: CSF-1R in Vitro AlphaScreen Assay
Activity of purified CSF-1R was determined in vitro using an Amplified Luminescent Proximity Homogeneous Assay (ALPHA)(Perkin Elmer), which measures phosphorylation of the CSF-1R substrate, biotinylated poly-glutamine-tyrosine peptide (PEY-HTRF CisBio 61GT0BLD), as described below. The His-tagged kinase domain of CSF-1R (i.e., amino acids 568-912, GeneBank ID NM_005211; (see page 25 lines 13-19 of WO 2006/067445 for the sequence listing)) was purified from baculovirus infected SF+Express insect cells (1.4×10^6 cells/ml), French pressed and chromatographed through subsequent Qiagen Ni-NTA, Superflow Mono Q HR 10/10, and Superdex 200 SEC columns. Typical yield was 245 μg/l of cell pellet at >95% purity.
The phosphorylation of the CSF-1R substrate in the presence and absence of the compound of interest was determined. Briefly, 0.57 nM of purified CSF-1R, 5 nM pEY substrate, and compound were preincubated in 1× buffer for 30 minutes at 25° C. Reactions were initiated with addition of 90 μM adenosine triphosphate (ATP) in 1× buffer and incubated at 25° C. for 60 minutes and reactions stopped by addition of 5 μl of detection mix consisting of 136 mM NaCl, 102 mM ethylenediamine tetraacetic acid, 1.65 mg/ml BSA, 40 ug/ml Streptavidin donor beads (Perkin Elmer 6760002), 40 ug/ml pTyr100 acceptor beads (Perkin Elmer 6760620). Plates were incubated at 25° C. for 18 hours in the dark. Phosphorylated substrate was detected by an EnVision plate reader (Perkin Elmer) 680 nm excitation, 520-620 nm emission. Data was graphed and IC50s calculated using Excel Fit (Microsoft).
For `CCOc1cc2ncc(C(N)=O)c(Nc3ccc(F)cc3F)c2cc1-c1cncnc1` [Example 34, 4-[(2,4-Difluorophenyl)amino]-7-ethoxy-6-pyrimidin-5-ylquinoline-3-carboxamide], the half-maximal inhibitory concentration (IC50) is 25 nM.
The same measure, in the same setting: next, `CCOc1cc2ncc(C(N)=O)c(Nc3ccc(F)cc3F)c2cc1-c1ccncc1` [Example 35, 4-[(2,4-Difluorophenyl)amino]-7-ethoxy-6-pyridin-4-ylquinoline-3-carboxamide]: 61 nM; `CCOc1cc2ncc(C(N)=O)c(Nc3ccc(F)cc3F)c2cc1-c1cn[nH]c1` [Example 36, 4-[(2,4-Difluorophenyl)amino]-7-ethoxy-6-(1H-pyrazol-4-yl)quinoline-3-carboxamide]: 28 nM; `CCOc1cc2ncc(C(N)=O)c(Nc3ccc(F)cc3F)c2cc1-c1cnn(CC(C)C)c1` [Example 37, 4-[(2,4-Difluorophenyl)amino]-7-ethoxy-6-(1-isobutyl-1H-pyrazol-4-yl)quinoline-3-carboxamide]: 440 nM.
As for `CCOc1cc2ncc(C(N)=O)c(Nc3ccc(F)cc3F)c2cc1C1=CCN(C(=O)OC(C)(C)C)CC1` [Example 38, tert-Butyl 4-{3-(aminocarbonyl)-4-[(2,4-difluorophenyl)amino]-7-ethoxyquinolin-6-yl}-3,6-dihydropyridine-1(2H)-carboxylate], the half-maximal inhibitory concentration (IC50) was 660 nM.
For `CCOc1cc2ncc(C(N)=O)c(Nc3ccc(F)cc3F)c2cc1C1=CCNCC1` [Example 39, 4-[(2,4-Difluorophenyl)amino]-7-ethoxy-6-(1,2,3,6-tetrahydropyridin-4-yl)quinoline-3-carboxamide], the IC50 is less than 3 nM.
Turning to `CCOc1cc2ncc(C(N)=O)c(Nc3ccc(F)cc3F)c2cc1C1CCNCC1` [Example 40, 4-[(2,4-Difluorophenyl)amino]-7-ethoxy-6-piperidin-4-ylquinoline-3-carboxamide], the IC50 stood at 7 nM.
`CCOc1cc2ncc(C(N)=O)c(Nc3ccc(F)cc3F)c2cc1C1=CCN(C(C)=O)CC1` [Example 41, 6-(1-Acetyl-1,2,3,6-tetrahydropyridin-4-yl)-4-[(2,4-difluorophenyl)amino]-7-ethoxyquinoline-3-carboxamide] showed a half-maximal inhibitory concentration (IC50) of 14 nM.
In turn, `CCOc1cc2ncc(C(N)=O)c(Nc3ccc(C)cc3F)c2cc1C1CCN(C)CC1` [Example 42, 7-Ethoxy-4-[(2-fluoro-4-methylphenyl)amino]-6-(1-methylpiperidin-4-yl)quinoline-3-carboxamide] registered an IC50 of 5 nM.
As to `CCOc1cc2ncc(C(N)=O)c(Nc3ccc(F)cc3F)c2cc1C1CCN(C)CC1` [Example 43, 4-[(2,4-Difluorophenyl)amino]-7-ethoxy-6-(1-methylpiperidin-4-yl)quinoline-3-carboxamide], the IC50 is less than 3.9 nM.
The compound `CCOc1cc2ncc(C(N)=O)c(Nc3cccc(Cl)c3F)c2cc1C1CCN(C)CC1` [Example 44, 4-[(3-Chloro-2-fluorophenyl)amino]-7-ethoxy-6-(1-methylpiperidin-4-yl)quinoline-3-carboxamide] gave an IC50 of less than 3 nM.
Take `CCOc1cc2ncc(C(N)=O)c(Nc3cccc(Cl)c3Cl)c2cc1C1CCN(C)CC1` [Example 45, 4-[(2,3-Dichlorophenyl)amino]-7-ethoxy-6-(1-methylpiperidin-4-yl)quinoline-3-carboxamide]: the concentration for half-maximal inhibition (IC50) was less than 3 nM.
For `CCOc1cc2ncc(C(N)=O)c(Nc3ccc(C)cc3F)c2cc1C1CCN(C(C)C)CC1` [Example 47, 7-Ethoxy-4-[(2-fluoro-4-methylphenyl)amino]-6-(1-isopropylpiperidin-4-yl)quinoline-3-carboxamide], it took 4 nM to reach half-maximal inhibition (IC50).
Consider `CCOc1cc2ncc(C(N)=O)c(Nc3cc(C)ccc3F)c2cc1C1CCN(C(C)C)CC1` [Example 48, 7-Ethoxy-4-[(2-fluoro-5-methylphenyl)amino]-6-(1-isopropylpiperidin-4-yl)quinoline-3-carboxamide], for which the IC50 was determined as 3 nM.
As to `COc1cc2ncc(C(N)=O)c(Nc3ccc(C)cc3F)c2cc1C1CCN(C)CC1` [Example 49, 4-[(2-Fluoro-4-methylphenyl)amino]-7-methoxy-6-(1-methylpiperidin-4-yl)quinoline-3-carboxamide], the IC50 was found to be 7 nM.
On the same count and under the same terms, for `COc1cc2ncc(C(N)=O)c(Nc3cccc(Cl)c3F)c2cc1C1CCN(C)CC1` [Example 50, 4-[(3-Chloro-2-fluorophenyl)amino]-7-methoxy-6-(1-methylpiperidin-4-yl)quinoline-3-carboxamide] the value was 6 nM.
Take `COc1cc2ncc(C(N)=O)c(Nc3ccc(F)cc3F)c2cc1C1CCN(C)CC1` [Example 51, 4-[(2,4-Difluorophenyl)amino]-7-methoxy-6-(1-methylpiperidin-4-yl)quinoline-3-carboxamide]: the half-inhibitory concentration (IC50) is 10 nM.
Consider `COc1cc2ncc(C(N)=O)c(Nc3ccc(F)cc3F)c2cc1C1CCN(C(C)=O)CC1` [Example 55, 6-(1-Acetylpiperidin-4-yl)-4-[(2,4-difluorophenyl)amino]-7-methoxyquinoline-3-carboxamide], for which half-maximal inhibition (IC50) required 15 nM.
In the case of `CCOc1cc2ncc(C(N)=O)c(Nc3ccc(F)cc3F)c2cc1-c1ccc(=O)[nH]c1` [Example 59, 4-[(2,4-Difluorophenyl)amino]-7-ethoxy-6-(6-oxo-1,6-dihydropyridin-3-yl)quinoline-3-carboxamide], the IC50 amounted to 7 nM.
